Assay results: US6624203B1, “Nucleic acid bases used in ophthalmic solutions” (priority 2001, dated 2003)

Experiments:
[1] = tested on: Acanthamoeba castellanii cysts; assay: In vitro anti-acanthamoeba activity (serial dilution, viable trophozoites, log reduction); format: cell-based; settings: 0.5% guanine with PHMB 0.02% versus control without guanine
Protocol: A formulation containing 0.5% guanine was prepared in a 0.2% glycine buffer at pH 7.35. The solution was preserved with polyhexamethylene biquanide at 0.02%. A similar control was prepared except without the guanine. The in vitro anti-acanthamoeba activity of the test and control solutions was determined by exposing Acanthamoeba castellanii cysts to 2 ml of each solution at room temperature for 10 minutes. Subsequently, an aliquot of each solution was serial diluted in duplicate and incubated for 14 days. At the conclusion of the incubation period, the dilutions were examined for viable Acanthamoeba trophozoites. The log reduction was determined based on a comparison to the inoculum control. A negative control was performed to verify the technique. The following table provides the results of the in vitro studies.

C. albicans = assay: In vitro microbicidal activity against C. albicans (log reduction vs inoculum control); format: cell-based; settings: 0.2% phosphate buffer, isotonic NaCl, PHMB 0.0001%, pH 7.2
Protocol: A formulation containing guanine was prepared in a 0.2% phosphate buffer. The solution was made isotonic with sodium chloride and preserved with polyhexamethylene biquanide at 0.0001%. The pH was adjusted to 7.2 with either 1 N sodium hydroxide or 1 N hydrochloric acid. The in vitro microbicidal activity of the test and control solution was determined by exposing C. albicans to 10 ml of each solution at room temperature for 4 and 24 hours. Subsequently, an aliquot of each solution was serial diluted onto agar plates and incubated for 48 hours at elevated temperatures. At the conclusion of the incubation period the plates are examined for the development of colonies. The log reduction was determined based on a comparison to the inoculum control. The following table provides the results of the in vitro studies.

Nc1nc2nc[nH]c2c(=O)[nH]1 [Guanine, guanine]
Effect of guanine on activity of preserved formulations against Acanthamoeba [1]: improves the activity of preserved formulations against Acanthamoeba
log reduction, 4 hours (C. albicans; C. albicans exposed to 10 ml solution at room temperature for 4 hours): 0.97
log reduction, 24 hours (C. albicans; C. albicans exposed to 10 ml solution at room temperature for 24 hours): 3.05
